Laboratory results from a melting point compilation (Tetko et al.).

Settings: a range is the spread between reports

| melting point [°C] | Structure (SMILES) |
| --- | --- |
| 159 to 163 | O=C1c2ccccc2C(=O)c2c(Cl)cccc21 |
| 206 to 208 | Nc1cccc2ccc(O)cc12 |
| 172 to 177 | Cc1ccc2c(c1)C(=O)c1ccccc1C2=O |
| -8 to -7.8 | OCCc1ccccn1 |
| 118 to 120 | c1ccc2c3c([nH]c2c1)CCCC3 |
| 101 to 102 | Nc1ccccc1N |
| 232 to 234 | Cc1nc(-c2ccc(-c3nc(C)c(-c4ccccc4)o3)cc2)oc1-c1ccccc1 |
| 20 to 20.7 | CCOc1ccccc1C(=O)O |
| 57.5 to 58 | Nc1ccccn1 |
| 36.5 to 39 | Cc1ccc2cccnc2c1 |
| 46 to 47.5 | Cc1ccc(C(=O)c2ccccc2)cc1C |
| 2 to 3 | COc1ccccc1Br |
| 45.8 to 47 | Nc1ccccc1Oc1ccccc1 |
| 229 to 233 | O=C(O)c1ccc2c(c1)OCO2 |
| 71.5 to 75 | Cc1cccc(O)c1C |
| 163 to 164 | O=C(Nc1ccccc1)c1ccccc1 |
| 112 to 114 | Brc1ccc2c(c1)Cc1ccccc1-2 |
| 15 to 16 | c1ccc(NC2CCCCC2)cc1 |
| -72 to -71.5 | Cc1ccccc1C(C)C |
| 164 to 166 | O=C1OC(=O)C2C3C=CC(C3)C12 (stereo not drawn) |
| 14 to 14.5 | CC(C)c1ccc2ccccc2c1 |

| melting point [°C] | Structure (SMILES) |
| --- | --- |
| 84.5 to 88 | Cc1ccc(S(=O)(=O)NC2CCCCC2)cc1 |
| 116 to 118 | Nc1ccc2ccc3cccc4ccc1c2c34 |
| 130 | NC(=O)c1cccnc1 |
| 136 to 137 | CCOc1cccc(C(=O)O)c1 |
| 283 to 284 | O=C1C(O)=C(Cl)C(=O)C(O)=C1Cl |
| 61 to 64 | OCc1cccc2ccccc12 |
| 0.7 to 1 | Clc1ccccc1I |
| 124 | CCOC(=O)c1cc2ccccc2[nH]1 |
| 65.5 to 67 | CCOC(=O)C(=O)Nc1ccccc1 |
| 15 to 16.5 | Cc1cnc2ccccc2c1 |
| 61 to 61.5 | c1ccc(-c2ccncc2)nc1 |
| 240 | CCn1cc(C(=O)O)c(=O)c2cc(F)c(N3CCNC(C)C3)c(F)c21 (stereo not drawn) |
| 176 | Cn1c(=O)n(C)c(=O)n(C)c1=O |
| 250 to 253 | Cc1cc(O)c(C(C)C)cc1C1(c2cc(C(C)C)c(O)cc2C)OC(=O)c2ccccc21 |
| 270 to 275 | O=C1CCC(N2C(=O)c3ccccc3C2=O)C(=O)N1 (stereo not drawn) |
| -13 to -12.7 | N#Cc1ccccc1 |
| 7 to 9 | Cc1cccc(-c2cccc(C)c2)c1 |
| 103 to 104 | BrC1c2ccccc2-c2ccccc21 |
| 60 to 63.5 | OC1(c2ccccc2)CCCCC1 |
| 85 to 86 | c1ccc(Cc2ccc(-c3ccccc3)cc2)cc1 |
| 51.5 to 52 | COC(=O)c1ccccc1OC(C)=O |

| melting point [°C] | Structure (SMILES) |
| --- | --- |
| 144 to 146 | c1ccc(N=C(Nc2ccccc2)Nc2ccccc2)cc1 |
| 179 to 181 | O=C1c2c(O)cccc2Cc2cccc(O)c21 |
| 105 to 106 | c1cnc2[nH]ccc2c1 |
| 95 to 96 | O=C(O)Cc1ccccc1Cl |
| 253 to 256 | COC1=CC(=O)C=C(OC)C1=O |
| 36 to 37.5 | CCOc1ccc2ccccc2c1 |
| 79 to 81.8 | CC(=O)c1ccc([N+](=O)[O-])cc1 |
| 108 to 109 | Oc1ccc2[nH]ccc2c1 |
| 146 to 149 | O=C(O)Cc1ccccc1O |
| 81.5 to 82 | OC(COc1ccccc1)COc1ccccc1 |
| 135 to 140 | COc1ccc(C(=O)c2ccc(OC)cc2O)c(O)c1 |
| 97.5 to 98 | OCc1c[nH]c2ccccc12 |
| 165 to 166 | Cc1cccc(C(=O)O)c1O |
| -83 to -82.7 | CCc1ccccc1Cl |
| 70 to 71.2 | O=S(c1ccccc1)c1ccccc1 |
| 82 to 83 | O=C(c1ccccc1)c1cccc(Cl)c1 |
| 174 to 175 | O=Cc1cccc(C(=O)O)c1 |
| 234 to 238 | N#Cc1ccc(-c2ccc(C#N)cc2)cc1 |
| -74.4 to -74 | CC(C)c1ccccc1Cl |
| 35 to 37.5 | Nc1ccc2c(c1)CCC2 |
| 160 to 162 | O=C1CC[C@@H](C(=O)O)N1 |

The remaining lines, values behind:

| Structure (SMILES) | melting point [°C] |
| --- | --- |
| CC(=O)c1ccc(O)cc1 | 107 to 110 |
| N#Cc1c(Cl)cccc1Cl | 143 to 145 |
| O=C(OC(=O)C(F)(F)F)C(F)(F)F | -65 to -63 |
| CCCCCCCCCCCCCCCCC(=O)O | 60 to 61.3 |
| COCCOCCOC | -68 to -64 |
| Nc1c(Cl)cc([N+](=O)[O-])cc1[N+](=O)[O-] | 154 to 157 |
| Cc1cc(C)c(C)c(O)c1 | 93.5 to 94 |
| COC(=O)c1c(Cl)c(Cl)c(C(=O)OC)c(Cl)c1Cl | 155 to 157 |
| N#Cc1ccc(C#N)cc1 | 224 to 226 |
| NCCCCCCN | 39 to 41.5 |
| CCCCCCCCCCCCCCC(C)O (stereo not drawn) | 44 to 47 |
| CC1CCC(C)(C)C1 (stereo not drawn) | -142 |
| CCCCCCCCCCI | -16.3 to -16 |
| O=[N+]([O-])c1ccc(Cl)cc1 | 83.5 to 84 |
| CC(=O)Oc1ccc(C(=O)O)cc1 | 192 to 194 |
| CCCCCO | -79 to -78 |
| CC1OC1C (stereo not drawn) | -85 to -80 |
| Cc1cc(O)cc(O)c1 | 107 to 108 |
| CN1C2CCC1CC(=O)C2 | 42 to 43 |
| COCC(C)O (stereo not drawn) | -100 to -95 |
| CN(C)c1ccc(Br)cc1 | 54 to 55 |
| Oc1cccc(Cl)c1Cl | 56 to 59 |
| Oc1cc(Cl)cc(Cl)c1 | 66 to 68 |
| Cc1ccc(C(C)C)cc1 | -68.9 to -68 |
| Cc1cc(N)nc(C)n1 | 183 to 185 |
| O=C=S | -139 |
| Clc1ncccn1 | 66 to 67 |

| Structure (SMILES) | melting point [°C] |
| --- | --- |
| Nc1ccc(-c2ccccc2)cc1 | 53 to 54 |
| O=C(O)CCCCC1SCC2NC(=O)NC21 (stereo not drawn) | 230 to 232 |
| CC(C)C(C(C)C)C(C)C | -82 to -81.7 |
| C1=CC2CCC1C2 | 45 to 46 |
| Cc1c(N)cccc1[N+](=O)[O-] | 90 to 92 |
| ON=C1CCCC1 | 56 to 57.8 |
| O=[N+]([O-])c1cccc(CCl)c1 | 45 to 47 |
| CCCCCCCO | -36 to -33.2 |
| CCCCP(=O)(CCCC)CCCC | 64 to 67 |
| CCN(CC)CC | -115 |
| CC(C)=CC(C)(C)C | -106 |
| N#CCCC#N | 54 to 56 |
| OC[C@@H](O)[C@@H](O)[C@@H](O)CO | 102 to 103 |
| C=CCI | -99.3 to -99 |
| Cc1ccc([N+](=O)[O-])cc1 | 51 to 54 |
| C[Si]1(C)N[Si](C)(C)N[Si](C)(C)N[Si](C)(C)N1 | 96 to 97.5 |
| CCOC(=O)CCCCCCCCC(=O)OCC | 2 to 5 |
| CC1=CCCCC1 | -120 |
| FC(Br)(Br)Br | -74 to -73.6 |
| Cc1ncc([N+](=O)[O-])n1CCO | 159 to 160 |
| Cc1ccc(O)c([N+](=O)[O-])c1 | 34 to 36.5 |
| BrCc1ccc2ccccc2c1 | 53 to 56 |
| Nc1cc(Cl)cc(Cl)c1 | 51 to 53 |
| O=[N+]([O-])c1ccc(C(F)(F)F)cc1 | 39 to 40 |
| CC(=O)c1ccncc1 | 15 to 16 |
| CCC(C)(C)C(C)C | -101 |
| O=[N+]([O-])c1ccccc1O | 44 to 46 |

| Structure (SMILES) | melting point [°C] |
| --- | --- |
| COc1cc(C(=O)O)ccc1O | 212 to 214 |
| COc1cc(OC)c(C(=O)O)cc1OC | 144 to 145 |
| CC(C)(CO)CO | 125 to 130 |
| CC1=CC(=O)CC(C)(C)C1 | -8.1 to -8 |
| CCCCCCCCCCC1CCCCC1 | -2 to -1.7 |
| CCCCCc1cc(O)c2c(c1)OC(C)(C)c1ccc(C)cc1-2 | 76.5 to 77 |
| Ic1ccc(I)s1 | 41 to 41.5 |
| OC1CCCCCCCCCCC1 | 76 to 78 |
| O=c1[nH]c2ccccc2o1 | 138 to 140 |
| C=CC(C)(C)CC | -134 |
| C/C=C/C | -106 to -105 |
| CCCCCCCCC(C)O (stereo not drawn) | -5 to -2 |
| CCOC(=O)c1ccccc1N | 13 to 15 |
| COC(=O)c1ccc(OC)c(OC)c1 | 59 to 60.8 |
| CCCCOC(=O)c1ccc(N)cc1 | 57.5 to 58 |
| CNC(C)=O | 27 to 28 |
| C=CCCCCCCCCCCCCCCC | 11 to 11.5 |
| CCC(C)(C)Cl | -74 to -73 |
| CC/C=C/C(C)C | -142 |
| CCc1cc(C(C)(C)C)c(O)c(C(C)(C)C)c1 | 43 to 44 |
| COc1ccc(OC)cc1 | 56 to 60 |
| CCc1cc(C)c(C)cc1C | -14 to -13.5 |
| O=C(Cl)c1ccc(Br)cc1 | 40 to 42 |
| COc1ccccc1[N+](=O)[O-] | 9.4 to 10.5 |
| CCC(C)=NO | -30 to -29.5 |
| CCOC(=O)C(=O)OCC | -41 to -40 |
| CC(Cl)C(Cl)(Cl)Cl (stereo not drawn) | -65 to -64 |

| Structure (SMILES) | melting point [°C] |
| --- | --- |
| Cc1cc(C)c(Br)cc1C | 71 to 73 |
| COCCOC(C)=O | -65.1 to -65 |
| O=Cc1cc2c(cc1[N+](=O)[O-])OCO2 | 93.5 to 95 |
| CCCSCCC | -103 to -102 |
| CCCc1ccc(C(=O)O)cc1 | 142 to 143 |
| c1csc(-c2ccc(-c3cccs3)s2)c1 | 92 to 93.5 |
| O=Cc1ccc(Oc2ccccc2)cc1 | 24.5 to 25 |
| O=c1cc(CO)occ1O | 154 |
| CCCCCCCCCCCCCCC(=O)O | 52 to 53 |
| C=CCNCC=C | -88.4 to -88 |
| CS(=O)(=O)c1ccc(C(O)C(CO)NC(=O)C(Cl)Cl)cc1 (stereo not drawn) | 165 |
| OCC(CO)(CO)CO | 258 to 262 |
| CCCC(C)=O | -78 to -76.9 |
| C=CCc1ccc(O)c(OC)c1 | -10 to -9 |
| CCCCCCCCCCCCCCCCCCCCCCCCC | 53 to 54 |
| O=[N+]([O-])c1cccc(CBr)c1 | 58 to 59.3 |
| COc1cc(C=O)ccc1O | 81.5 to 82 |
| CCCCCCCCCCCCCCCCBr | 17 to 18 |
| Cc1csc(N)n1 | 44 to 45.5 |
| CC(=O)NCCCCCC(=O)O | 104 |
| CCCCCCCCCCCCCCCCCCCCCCCC | 51 to 54 |
| COc1ccc(CC#N)cc1OC | 62.8 to 64 |
| CCCOCC | -128 to -127 |
| CCC(CC)CC | -119 |
